# Reference: patent publication US20180169095A1, “THE USE OF SGC STIMULATORS, SGC ACTIVATORS, ALONE AND COMBINATIONS WITH PDE5 INHIBITORS FOR THE TREATMENT OF DIGITAL ULCERS (DU) CONCOMITANT TO SYSTEMIC SCLEROSIS (SSC)” (Bayer Pharma Aktiengesellschaft, priority 2015, published 2018)
# Entries after “also recorded” stand apart in the source; their conditions may differ.
# Test system: Tsk-1 mice
# Test: Wound healing in Tsk-1 mice (tight-skin mouse model of SSc), 4 mm punch wounds
# Type: in vivo
# Settings: for Healing time relative to healthy WT control mice (in words): TSK mice, no dose given; for Healing time relative to healthy WT control mice (in words) / Wound healing in tsk-1 mice versus placebo (in words): summary statement; for Reduction of wound size / Normalization of wound healing versus placebo-treated WT mice (68%±2%) / Wound healing in tsk-1 mice versus placebo (in words): tsk-1 mice; for Reduction of wound size / Normalization of wound healing versus placebo-treated WT mice (68%±2%): 3 days after punching; for Reduction of wound size: mean±SEM; for Normalization of wound healing versus placebo-treated WT mice (68%±2%): 45 ppm in mice chow; for Wound healing in tsk-1 mice versus placebo (in words): drug in food
# Procedure: The tight-skin (Tsk-1) mouse model of SSc was used to evaluate the effects of compound according to formula (27) and (3) (BAY 41-2272 and BAY 63-2521) on wound healing in mice with substantial skin fibrosis. Due to an autosomal dominant mutation namely a tandem duplication of the fibrillin-1 gene, the phenotype of tsk-1 mice is characterized by an increased hypodermal thickness (Beyer et al. 2010). Genotyping of Tsk-1 mice was performed by PCR with the following primers: mutated fibrillin-1/tsk-1 forward primer: 5′-[…]-3′, reverse primer: 5′-[…]-3′.
# The effects of either placebo (=vehicle for the compounds=0.5% tylose solution), or the compound according to formula (27) or (3), (BAY 41-2272 or BAY 63-2521) were studied in Tsk-1 mice. Tsk-1 mice were anaesthetized and carefully shaved 3 days before setting the wounds for exact quantification of the wound size. In order to avoid influences on wound healing by daily handling of the animals, the bi-daily gavage treatment was replaced by drug administration in the food. Mice received either normal mice chow (placebo) or mice chow, containing 15 and 45 ppm of compound according to formula (27), (BAY 41-2272) or containing 5 ppm, 15 ppm and 45 ppm of compound according to formula (3), (BAY 63-2521), respectively. […] Treatment groups consist of at least 8 tsk-1 mice per group. Treatment started on the day of shaving to achieve steady state exposure. Three days after shaving, mice were carefully anesthetized and round wounds were punched with 4 mm in diameter. 3 days after punching, mice were euthanized and the wound size was assessed. Statistical analysis of data was done by one-way ANOVA followed by Tuckey's multiple comparison post-hoc analysis
# [1] = 15 ppm in mice chow (exposure similar to 1 mg/kg BID)
# [2] = 45 ppm in mice chow (exposure similar to 3 mg/kg BID)
smiles,measurement,setting,value
Nc1nc(-c2nn(Cc3ccccc3F)c3ncccc23)ncc1C1CC1 [(27)],Healing time relative to healthy WT control mice (in words),,normalized the healing time to healthy WT control mice
same,Reduction of wound size,[1],64±2%
same,Reduction of wound size,[2],73±2%
same,Normalization of wound healing versus placebo-treated WT mice (68%±2%),,normalized wound healing to a similar extent as observed in placebo-treated WT mice
same,Wound healing in tsk-1 mice versus placebo (in words),,significantly and dose-dependently accelerated wound healing; also recorded: significantly and dose-dependently improved
COC(=O)N(C)c1c(N)nc(-c2nn(Cc3ccccc3F)c3ncccc23)nc1N [(3)],Healing time relative to healthy WT control mice (in words),,normalized the healing time to healthy WT control mice
same,Reduction of wound size,5 ppm in mice chow (exposure similar to 0.3 mg/kg BID),59%±4%
same,Reduction of wound size,[1],65±3%
same,Reduction of wound size,[2],70%±2%
same,Normalization of wound healing versus placebo-treated WT mice (68%±2%),,normalized wound healing to a similar extent as observed in placebo-treated WT mice
same,Wound healing in tsk-1 mice versus placebo (in words),,significantly and dose-dependently accelerated wound healing; also recorded: dose-dependently and significantly accelerated wound healing; also recorded: significantly and dose-dependently improved
